# Data taken from patent US20240116985A1, “STAPLED PEPTIDES AND METHODS THEREOF” (priority 2020, published 2024).
# Starred links: 1 amine or outer side, 2 acyl side, 3 side chain; linkers in the order of their positions; H or OH if unused. Positions of bridges follow the written chain, without caps; N, C: chain ends. Non-standard residues stand in square brackets, D forms with d. Residues, ends and D or L forms follow the SMILES beside them. X3 = O=C([C@]1(CC=[*:3])CCCN1[*:1])[*:2]; Bta = N[C@@H](Cc1csc2ccccc12)C(=O)O; tBuAla = CC(C)(C)C[C@H](N)C(=O)O; 3Thi = N[C@@H](Cc1ccsc1)C(=O)O; R5 = C=CCCC[C@@](C)(N)C(=O)O; S5 = C=CCCC[C@](C)(N)C(=O)O
# Target: T1, full-length beta-Catenin (Uniprot ID P35222) (Homo sapiens, UniProt P35222)
# T1 construct: 10 nM full-length beta-Catenin (Uniprot ID P35222)
# T1 sequence (P35222 1-781): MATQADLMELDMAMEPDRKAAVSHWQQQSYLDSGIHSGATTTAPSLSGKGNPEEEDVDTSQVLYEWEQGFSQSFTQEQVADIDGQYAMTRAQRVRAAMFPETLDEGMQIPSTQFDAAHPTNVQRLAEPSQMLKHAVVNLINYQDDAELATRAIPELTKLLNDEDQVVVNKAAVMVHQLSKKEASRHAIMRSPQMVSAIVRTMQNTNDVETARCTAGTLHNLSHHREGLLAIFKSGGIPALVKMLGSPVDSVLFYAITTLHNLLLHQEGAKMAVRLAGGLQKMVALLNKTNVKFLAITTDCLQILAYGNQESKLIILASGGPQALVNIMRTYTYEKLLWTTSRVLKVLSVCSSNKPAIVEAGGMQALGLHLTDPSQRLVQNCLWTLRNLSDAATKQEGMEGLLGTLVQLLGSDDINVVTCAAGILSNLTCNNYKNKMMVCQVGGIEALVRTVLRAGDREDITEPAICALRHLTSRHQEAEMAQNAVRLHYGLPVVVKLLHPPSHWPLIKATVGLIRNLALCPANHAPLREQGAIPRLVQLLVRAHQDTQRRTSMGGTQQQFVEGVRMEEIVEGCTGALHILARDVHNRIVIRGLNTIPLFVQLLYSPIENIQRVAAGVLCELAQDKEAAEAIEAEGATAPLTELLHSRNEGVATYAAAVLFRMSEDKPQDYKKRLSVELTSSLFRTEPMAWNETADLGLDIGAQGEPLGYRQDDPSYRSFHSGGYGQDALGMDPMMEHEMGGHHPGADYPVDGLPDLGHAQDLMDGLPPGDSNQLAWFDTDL
# Experiment: Fluorescence polarization IC50 (beta-catenin / 5FAM-TCF4 10-53 competition)
# Type: binding
# Conditions: fluorescence polarization; read-out: beta-Catenin FP IC50
row,SMILES,IC50
1,"CC(=O)N1CCC[C@]12CC=CCCCC1(CCCC=CCCCOC(=O)N3CC[C@@](C(=O)N[C@@H](Cc4ccsc4)C(=O)N[C@@H](Cc4csc5ccccc45)C(=O)N[C@@H](CCC(N)=O)C(N)=O)(C3)NC(=O)[C@H](CC(N)=O)NC(=O)[C@H](Cc3ccccc3)NC(=O)[C@H](C)NC(=O)[C@H](C)NC(=O)[C@H]([C@@H](C)O)NC(=O)[C@H](CC(N)=O)NC1=O)NC(=O)[C@H](CC(C)(C)C)NC(=O)[C@H](CN(CC(=O)O)CC(F)(F)F)NC2=O (stereo partly drawn) [I-2130, Ac-PL3-TfeGA-Npg-B5-Asn-Thr-Ala-Ala-Phe-Asn-PyrS2-3Thi-BztA-Gln-NH2]",4.92 µM
2,"CC(=O)N1CCC[C@]12CC=CCCCC1(CCCC=CCCCOC(=O)N3CC[C@@](C(=O)N[C@@H](Cc4ccccc4)C(=O)N[C@@H](Cc4csc5ccccc45)C(=O)N[C@@H](CC(=O)N4CCOCC4)C(N)=O)(C3)NC(=O)[C@H](CC(C)C)NC(=O)[C@H](Cc3ccccc3)NC(=O)[C@H](C)NC(=O)[C@H](CCCCNC(=O)C(F)(F)F)NC(=O)[C@H](CCC(N)=O)NC(=O)[C@H](CC(=O)O)NC1=O)NC(=O)[C@H](CC1CCCCC1)NC(=O)[C@H](CC(N)=O)NC2=O (stereo partly drawn) [I-2525, Ac-PL3-Asn-Cha-B5-Asp-Gln-[CF3CO]Lys-Ala-Phe-Leu-PyrS2-Phe-BztA-MorphAsn-NH2]",4.29 µM
3,"CC(=O)N1CCC[C@]12CC=CCCCC1(CCCC=CCCCOC(=O)N3CC[C@@](C(=O)N[C@@H](Cc4ccccc4Cl)C(=O)N[C@@H](Cc4csc5ccccc45)C(=O)N[C@H](CO)CC(C)C)(C3)NC(=O)[C@H]([C@@H](C)O)NC(=O)[C@H](Cc3ccccc3)NC(=O)[C@H](C)NC(=O)[C@H](C)NC(=O)[C@H](CN(CC(=O)O)CC(F)(F)F)NC(=O)[C@H](CC(=O)O)NC1=O)NC(=O)[C@H](CC(C)(C)C)NC(=O)[C@H](CC(=O)O)NC2=O (stereo partly drawn) [I-1243, Ac-PL3-Asp-Npg-B5-Asp-TfeGA-Ala-Ala-Phe-Thr-PyrS2-2C1F-BztA-Leuo1]",0.082 µM
4,"CC(=O)N1CCC[C@]12CC=CCCCC1(CCCC=CCCCOC(=O)N3CC[C@@](C(=O)N[C@@H](Cc4ccsc4)C(=O)N[C@@H](Cc4csc5ccccc45)C(=O)N[C@@H](CCC(N)=O)C(N)=O)(C3)NC(=O)[C@H](CC(N)=O)NC(=O)[C@H](Cc3ccccc3)NC(=O)[C@H](C)NC(=O)[C@H](C)NC(=O)[C@H]([C@@H](C)O)NC(=O)[C@H](CC(N)=O)NC1=O)NC(=O)[C@H](CC(C)(C)C)NC(=O)[C@H](Cc1cccc(C(=O)O)c1)NC2=O (stereo partly drawn) [I-2135, Ac-PL3-3COOHF-Npg-B5-Asn-Thr-Ala-Ala-Phe-Asn-PyrS2-3Thi-BztA-Gln-NH2]",3.41 µM
5,"CC(=O)N1CCC[C@]12CC=CCCCC1(CCCC=CCCCOC(=O)N3CC[C@@](C(=O)N[C@@H](Cc4ccccc4Cl)C(=O)N[C@@H](Cc4csc5ccccc45)C(=O)N[C@@H](CCC(N)=O)C(N)=O)(C3)NC(=O)[C@H](CC(N)=O)NC(=O)[C@H](Cc3ccccc3)NC(=O)[C@H](C)NC(=O)[C@H](C)NC(=O)[C@H]([C@@H](C)O)NC(=O)[C@H](CC(N)=O)NC1=O)NC(=O)[C@H](CC(C)(C)C)NC(=O)[C@H](CC(=O)O)NC2=O (stereo partly drawn) [I-1998, Ac-PL3-Asp-Npg-B5-Asn-Thr-Ala-Ala-Phe-Asn-PyrS2-2C1F-BztA-Gln-NH2]",0.732 µM
6,"CCOC(=O)CC[C@@H]1NC(=O)[C@H](CC(=O)O)NC(=O)C2(CCCC=CCCCOC(=O)N3CC[C@@](C(=O)N[C@@H](Cc4ccsc4)C(=O)N[C@@H](Cc4csc5ccccc45)C(=O)N[C@@H](CCC(N)=O)C(N)=O)(C3)NC(=O)[C@H](CC(C)C)NC(=O)[C@H](Cc3ccccc3)NC(=O)[C@H](C)NC(=O)[C@H](C)NC1=O)CCCC=CC[C@]1(CCCN1C(C)=O)C(=O)N[C@@H](CC(=O)O)C(=O)N[C@@H](CC(C)(C)C)C(=O)N2 (stereo partly drawn) [I-2365, Ac-PL3-Asp-Npg-B5-Asp-[Et]GluE-Ala-Ala-Phe-Leu-PyrS2-3Thi-BztA-Gln-NH2]",3.44 µM
7,"CC(=O)N1CCC[C@]12CC=CCCCC1(CCCC=CCCCOC(=O)N3CC[C@@](C(=O)N[C@@H](Cc4ccsc4)C(=O)N[C@@H](Cc4csc5ccccc45)C(=O)N[C@@H](CCC(N)=O)C(N)=O)(C3)NC(=O)[C@H](Cc3c[nH]cn3)NC(=O)[C@H](Cc3ccccc3)NC(=O)[C@H](C)NC(=O)[C@H](C)NC(=O)[C@H]([C@@H](C)O)NC(=O)[C@H](CC(N)=O)NC1=O)NC(=O)[C@H](CC(C)(C)C)NC(=O)[C@H](CC(=O)O)NC2=O (stereo partly drawn) [I-2147, Ac-PL3-Asp-Npg-B5-Asn-Thr-Ala-Ala-Phe-His-PyrS2-3Thi-BztA-Gln-NH2]",0.39 µM
8,"CCCc1cn(CCCC[C@@H](NC(=O)[C@H](CO)NC(=O)[C@H](Cc2csc3ccccc23)NC(=O)[C@H](Cc2ccccc2C(F)(F)F)NC(=O)[C@]23CCN(C2)C(=O)OCCCC=CCCCC2(CCCC=CC[C@]4(CCCN4C(C)=O)C(=O)N[C@@H](CC(=O)O)C(=O)N[C@@H](CC(C)(C)C)C(=O)N2)C(=O)N[C@@H](CC(=O)O)C(=O)N[C@@H](Cc2cccc(C(=O)O)c2)C(=O)N[C@@H](C)C(=O)N[C@@H](C)C(=O)N[C@@H](Cc2ccccc2)C(=O)N[C@@H](CC(C)C)C(=O)N3)C(N)=O)nn1 (stereo partly drawn) [I-2444, Ac-PL3-Asp-Npg-B5-Asp-3COOHF-Ala-Ala-Phe-Leu-PyrS2-2F3MeF-BztA-Ser-[3C]TriAzdLys-NH2]",0.121 µM
9,"CC(=O)N1CCC[C@]12CC=CCCCC1(CCCC=CCCCOC(=O)N3CC[C@@](C(=O)N[C@@H](Cc4cccc(Br)c4)C(=O)N[C@@H](Cc4ccccc4)C(=O)N[C@@H](CCC(N)=O)C(N)=O)(C3)NC(=O)[C@H](CC(C)C)NC(=O)[C@H](Cc3ccccc3)NC(=O)[C@H](C)NC(=O)[C@H](C)NC(=O)[C@H](Cc3cccc(C(=O)O)c3)NC(=O)[C@H](CC(=O)O)NC1=O)NC(=O)[C@H](CC(C)(C)C)NC(=O)[C@H](CC(=O)O)NC2=O (stereo partly drawn) [I-2153, Ac-PL3-Asp-Npg-B5-Asp-3COOHF-Ala-Ala-Phe-Leu-PyrS2-3BrF-Phe-Gln-NH2]",1.48 µM
10,"CC(=O)N1CCC[C@]12CC=CCCCC1(CCCC=CCCCOC(=O)N3CC[C@@](C(=O)N[C@@H](Cc4ccsc4)C(=O)N[C@@H](Cc4csc5ccccc45)C(=O)N[C@@H](CCC(N)=O)C(N)=O)(C3)NC(=O)[C@H]([C@@H](C)O)NC(=O)[C@H](Cc3ccccc3)NC(=O)[C@H](C)NC(=O)[C@H](C)NC(=O)[C@H]([C@@H](C)O)NC(=O)[C@H](CC(N)=O)NC1=O)NC(=O)[C@H](CC(C)(C)C)NC(=O)[C@H](CC(=O)O)NC2=O (stereo partly drawn) [I-1621, Ac-PL3-Asp-Npg-B5-Asn-Thr-Ala-Ala-Phe-Thr-PyrS2-3Thi-BztA-Gln-NH2]",0.266 µM
11,"CC(=O)N1CCC[C@]12CC=CCCCC1(CCCC=CCCCOC(=O)N3CC[C@@](C(=O)N[C@@H](Cc4ccsc4)C(=O)N[C@@H](Cc4cccc(F)c4F)C(=O)N[C@@H](CCC(N)=O)C(N)=O)(C3)NC(=O)[C@H](CC(C)C)NC(=O)[C@H](Cc3ccccc3)NC(=O)[C@H](C)NC(=O)[C@H](C)NC(=O)[C@H](CC(=O)O)NC(=O)[C@H](CC(=O)O)NC1=O)NC(=O)[C@H](CC(C)(C)C)NC(=O)[C@H](CC(=O)O)NC2=O (stereo partly drawn) [I-1425, Ac-PL3-Asp-Npg-B5-Asp-Asp-Ala-Ala-Phe-Leu-PyrS2-3Thi-23FF-Gln-NH2]",0.239 µM
12,"CC(=O)N1CCC[C@]12CC=CCCC[C@@](C)(C(=O)N[C@@H](CC(=O)O)C(=O)N[C@@H](CC(=O)O)C(=O)N[C@@H](C)C(=O)N[C@@H](C)C(=O)N[C@@H](Cc1ccccc1)C(=O)N[C@]1(C)CCCC=CCCC[C@@](C)(C(=O)N[C@@H](C)C(N)=O)NC(=O)[C@H](Cc3csc4ccccc34)NC(=O)[C@H](Cc3ccsc3)NC(=O)[C@H](C)NC1=O)NC(=O)[C@H](CC(C)(C)C)NC(=O)[C@H](CC(=O)O)NC2=O [I-1778, Ac-PL3-Asp-Npg-S5-Asp-Asp-Ala-Ala-Phe-R5-Ala-3Thi-BztA-S5-Ala-NH2] (Ac-[X3]D[tBuAla][S5]DDAAF[R5]A[3Thi][Bta][S5]A-NH2; staple 1-4, 10-14 (inferred))",2.08 µM
13,"CC(=O)N1CCC[C@]12CC=CCCCC[C@@](C)(C(=O)N[C@@H](CC(=O)O)C(=O)N[C@@H](CC(=O)O)C(=O)N[C@@H](C)C(=O)N[C@@H](C)C(=O)N[C@@H](Cc1ccccc1)C(=O)N[C@@H](CC(C)C)C(=O)NC(C)(C)C(=O)N[C@@H](Cc1ccsc1)C(=O)N[C@@H](Cc1csc3ccccc13)C(=O)N[C@@H](CCC(N)=O)C(N)=O)NC(=O)[C@H](CC(C)(C)C)NC(=O)[C@H](CC(=O)O)NC2=O [I-1977, Ac-PL3-Asp-Npg-S6-Asp-Asp-Ala-Ala-Phe-Leu-Aib-3Thi-BztA-Gln-NH2]",4.28 µM

# Same assay, conditions: read-out: beta-Catenin FP IC50; fluorescence polarization
row,SMILES,IC50
1,"CC(=O)N1CCC[C@]12CC=CCCCC1(CCCC=CCCCOC(=O)N3CC[C@@](C(=O)N[C@@H](Cc4ccsc4)C(=O)N[C@@H](Cc4csc5ccccc45)C(=O)N[C@@H](CCC(N)=O)C(N)=O)(C3)NC(=O)[C@H](CC(C)C)NC(=O)[C@H](Cc3ccccc3)NC(=O)[C@H](C)NC(=O)[C@H](C)NC(=O)[C@H](CC(=O)O)NC(=O)[C@H](CC(=O)OCCSSc3ccccc3)NC1=O)NC(=O)[C@H](CC(C)(C)C)NC(=O)[C@H](CC(=O)O)NC2=O (stereo partly drawn) [I-1955, Ac-PL3-Asp-Npg-B5-[EtSSPh]AspE-Asp-Ala-Ala-Phe-Leu-PyrS2-3Thi-BztA-Gln-NH2]",1.2 µM
